Data on 13 compounds can be found in patent US20260325533A1, “CDK INHIBITOR COMPOUNDS” (ALEKSIA THERAPEUTICS, INC., priority 2023, published 2026).

One assay deals with CDK1/CCNB1 (Homo sapiens, UniProt P06493). As to the kind of experiment: CDK1 homogeneous time-resolved fluorescence (HTRF) kinase assay. The class given is biochemical. The procedure, abridged: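 CDK1/CCNB1 0.5 nM + cpd, 20 min 23 °C; add 1 mM ATP, 50 nM ULight-4E-BP1 peptide, 60 min 23 °C; stop 10 mM EDTA; 2 nM Eu-Ab, 60 min; HTRF 665 nm. 11-pt half-log, top 10 μM typical; IC50.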
On the technique in general: TR-FRET usually uses a lanthanide donor and a delayed reading to cut background.

For another assay, the target named is CDK2/CCNE1 (Homo sapiens, UniProt P24941). As to the kind of experiment: CDK2 homogeneous time-resolved fluorescence (HTRF) kinase assay. The class given is biochemical. The procedure, abridged: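 An HTRF format measures CDK2/CCNE1 (3 nM) phosphorylating a 4E-BP1 Thr37/46 peptide at high (1 mM) ATP. Reactions run one hour at 23 °C, then EDTA-quenched and probed with Eu-labelled phospho-specific antibody.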

[1] abbreviates: CDK2/CCNE, <25 nM, read-out: CDK2/CCNE IC50 <25 nM.
Where [2] appears, read: CDK1/CCNB, >250 nM marked x, read-out: CDK1/CCNB IC50 >250 nM.
Where [3] appears, read: CDK2/CCNE, 25-250 nM marked x, read-out: CDK2/CCNE IC50 25-250 nM.
[4] abbreviates: CDK2/CCNE, >250 nM marked x, read-out: CDK2/CCNE IC50 >250 nM.

Each structure is given as a SMILES string. pIC50: −log10 of the molar value. Where two headings read alike, the source gives them in different places.

Sequence of CDK1/CCNB1 (P06493 whole entry): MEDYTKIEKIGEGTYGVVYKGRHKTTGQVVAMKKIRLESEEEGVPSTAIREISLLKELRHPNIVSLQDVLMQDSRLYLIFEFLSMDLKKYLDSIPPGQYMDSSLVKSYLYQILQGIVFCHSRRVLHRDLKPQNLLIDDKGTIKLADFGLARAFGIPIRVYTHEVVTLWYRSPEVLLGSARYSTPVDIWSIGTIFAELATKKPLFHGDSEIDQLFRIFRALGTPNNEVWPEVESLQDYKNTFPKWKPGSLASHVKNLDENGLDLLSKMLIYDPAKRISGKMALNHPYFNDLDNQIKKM
Sequence of CDK1/CCNB1 (P14635 whole entry partner): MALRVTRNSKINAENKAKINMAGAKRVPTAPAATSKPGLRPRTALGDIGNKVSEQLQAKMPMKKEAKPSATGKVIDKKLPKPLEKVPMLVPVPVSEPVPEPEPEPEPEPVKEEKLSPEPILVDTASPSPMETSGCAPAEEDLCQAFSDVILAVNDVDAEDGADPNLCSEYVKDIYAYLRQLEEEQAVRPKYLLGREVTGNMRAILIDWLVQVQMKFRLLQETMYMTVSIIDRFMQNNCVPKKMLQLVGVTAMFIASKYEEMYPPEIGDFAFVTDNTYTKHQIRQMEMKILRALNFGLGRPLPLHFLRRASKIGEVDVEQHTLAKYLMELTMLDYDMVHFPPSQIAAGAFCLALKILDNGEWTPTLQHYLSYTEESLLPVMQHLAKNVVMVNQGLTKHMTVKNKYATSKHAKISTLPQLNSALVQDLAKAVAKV

On to `N#CC1CCN(c2nccc3cnc(Nc4cccc(C(=O)ON5C(=O)CCC5=O)c4)cc23)CC1` [Ex 258, 2,5-dioxopyrrolidin-1-yl 3-((5-(4-cyanopiperidin-1-yl)-2,6-naphthyridin-3-yl)amino)benzoate], for which the pIC50 at CDK1/CCNB1 (CDK1/CCNB, <25 nM, read-out: CDK1/CCNB IC50 <25 nM) was over 7.60; on CDK2/CCNE1 (setting [1]), over 7.60.
Consider `CS(=O)(=O)c1ccc(Nc2cc3c(N4CCC(C#N)CC4)nccc3cn2)cc1` [Ex 259, 1-(7-((4-(methylsulfonyl)phenyl)amino)-2,6-naphthyridin-1-yl)piperidine-4-carbonitrile], for which the pIC50 is under 6.60 on CDK1/CCNB1 (setting [2]) and 6.60 to 7.60 on CDK2/CCNE1 (setting [3]).
For the compound `Cc1cc2c(cnn2C)cc1-c1nccc2cnc(NC3CCN(S(C)(=O)=O)CC3)cc12` [Ex 262, 5-(1,6-dimethyl-1H-indazol-5-yl)-N-(1-(methylsulfonyl)piperidin-4-yl)-2,6-naphthyridin-3-amine], the pIC50 was 6.60 to 7.60 at CDK1/CCNB1 (CDK1/CCNB, 25-250 nM marked x, read-out: CDK1/CCNB IC50 25-250 nM) and over 7.60 at CDK2/CCNE1 (setting [1]).
For the compound `Cn1cc(-c2nccc3cnc(NC4CCN(S(C)(=O)=O)CC4)cc23)cn1` [Example 4, 5-(1-methyl-1H-pyrazol-4-yl)-N-(1-(methylsulfonyl)piperidin-4-yl)-2,6-naphthyridin-3-amine], the values for the pIC50 at CDK1/CCNB1 (setting [2]) and on CDK2/CCNE1 (setting [3]) were under 6.60 and 6.60 to 7.60, respectively.
The matching figures for `COc1nccc2cnc(NC3CCN(S(C)(=O)=O)CC3)cc12` [Example 5, 5-methoxy-N-(1-(methylsulfonyl)piperidin-4-yl)-2,6-naphthyridin-3-amine]: under 6.60 and 6.60 to 7.60.
For `CS(=O)(=O)N1CCC(Nc2cc3c(-c4ccccn4)nccc3cn2)CC1` [Example 8, N-(1-(methylsulfonyl)piperidin-4-yl)-5-(pyridin-2-yl)-2,6-naphthyridin-3-amine], the pIC50 was under 6.60 at CDK1/CCNB1 (setting [2]) and 6.60 to 7.60 at CDK2/CCNE1 (setting [3]).
As to `C=CS(=O)(=O)N1CCC(Nc2cc3c(N4CCCCC4)nccc3cn2)C1` (centres unmarked) [Example 9, 5-(piperidin-1-yl)-N-(1-(vinylsulfonyl)pyrrolidin-3-yl)-2,6-naphthyridin-3-amine], the pIC50 on CDK1/CCNB1 (setting [2]) and on CDK2/CCNE1 (setting [4]) was under 6.60 throughout.
Take `C=CS(=O)(=O)N1CCC(Nc2cc3c(N4CCC(F)(F)CC4)nccc3cn2)CC1` [Example 10, 5-(4,4-difluoropiperidin-1-yl)-N-(1-(vinylsulfonyl)piperidin-4-yl)-2,6-naphthyridin-3-amine]: the pIC50 is under 6.60 on CDK1/CCNB1 (setting [2]) and 6.60 to 7.60 on CDK2/CCNE1 (setting [3]).
For `CS(=O)(=O)N1CCC(Nc2cc3c(C(=O)N4CCC(O)CC4)nccc3cn2)CC1` [Example 12, (4-hydroxypiperidin-1-yl)(7-((1-(methylsulfonyl)piperidin-4-yl)amino)-2,6-naphthyridin-1-yl)methanone], the pIC50 on CDK1/CCNB1 (setting [2]) and at CDK2/CCNE1 (setting [4]) was under 6.60 in each case.
On to `N#CC1CCN(c2nccc3cnc(Nc4cccc(OS(=O)(=O)F)c4)cc23)CC1` [Example 13, 3-((5-(4-cyanopiperidin-1-yl)-2,6-naphthyridin-3-yl)amino)phenyl sulfurofluoridate], for which the pIC50 at CDK1/CCNB1 and on CDK2/CCNE1 was under 6.60 in each case.
On to `N#CC1CCN(c2nccc3cnc(Nc4ccc(OS(=O)(=O)F)cc4)cc23)CC1` [Example 14, 4-((5-(4-cyanopiperidin-1-yl)-2,6-naphthyridin-3-yl)amino)phenyl sulfurofluoridate], for which the pIC50 against CDK1/CCNB1 and against CDK2/CCNE1 was under 6.60 in each case.
As to `N#CC1CCN(c2nccc3cnc(Nc4ccc(C(=O)NC5CCSC5=O)cc4)cc23)CC1` (centres unmarked) [Example 16, 4-((5-(4-cyanopiperidin-1-yl)-2,6-naphthyridin-3-yl)amino)-N-(2-oxotetrahydrothiophen-3-yl)benzamide], the pIC50 at CDK1/CCNB1 (setting [2]) and at CDK2/CCNE1 (setting [4]) was under 6.60 each time.
Regarding `CS(=O)(=O)N1CCC(Nc2cc3c(N4CCCCC4)nc(CO)cc3cn2)CC1` [Example 17, (7-((1-(methylsulfonyl)piperidin-4-yl)amino)-1-(piperidin-1-yl)-2,6-naphthyridin-3-yl)methanol], the values for the pIC50 on CDK1/CCNB1 (setting [2]) and at CDK2/CCNE1 (setting [3]) were under 6.60 and 6.60 to 7.60, respectively.
